Structures are written as SMILES.

In patent US11805773B1, “Nanocomposite including water-soluble nano-polymer and mesoporous silica nanoparticles encapsulated with azole derivatives” (KING FAISAL UNIVERSITY, priority 2023, dated 2023) one finds melting point data, which are given here for 4 molecules.

For orientation: melting point means the temperature, or range, at which the solid turns liquid. In turn, `COc1ccc(C2CC(c3ccc(Cl)cc3Cl)=NN2c2nc(-c3ccccc3)cs2)cc1OC` (stereo not shown) [1a, 2-(3-(2,4-dichlorophenyl)-5-(3,4-dimethoxyphenyl)-4,5-dihydro-1H-pyrazol-1-yl)-4-phenylthiazole] gave a melting point of 120 to 122 °C.
`COc1ccc(C2CC(c3ccc(Cl)cc3Cl)=NN2c2nc(-c3ccc(Cl)cc3)cs2)cc1` (stereo not shown) [1d, 4-(4-chlorophenyl)-2-(3-(2,4-dichlorophenyl)-5-(4-methoxyphenyl)-4,5-dihydro-1H-pyrazol-1-yl)thiazole] showed a melting point of 140 to 141 °C.
`COc1ccc(C2CC(c3ccc(Cl)cc3Cl)=NN2c2nc(-c3ccc(Cl)cc3)cs2)cc1OC` (stereo not shown) [1b, 4-(4-chlorophenyl)-2-(3-(2,4-dichlorophenyl)-5-(3,4-dimethoxyphenyl)-4,5-dihydro-1H-pyrazol-1-yl)thiazole] returned a melting point of 158 to 159 °C.
The molecule `COc1ccc(C2CC(c3ccc(Cl)cc3Cl)=NN2c2nc(-c3ccccc3)cs2)cc1` (stereo not shown) [1c, 2-(3-(2,4-dichlorophenyl)-5-(4-methoxyphenyl)-4,5-dihydro-1H-pyrazol-1-yl)-4-phenylthiazole] registered a melting point of 72 to 75 °C.
